In paper PMC11239390, “Glycoside-metabolizing oxidoreductase D3dgpA from human gut bacterium” (Frontiers in Bioengineering and Biotechnology, 2024):

T1: D3dgpA (human intestinal bacterium PUE, UniProt A0A3Q9WWX8)
T1 construct: gene dgpA; full length, 367 residues; His6-tag; pET-duet 1 (EcoRI/SalI), E. coli BL21 (DE3), Ni-NTA; about 45 kD; hexamer in solution; co-purifies with NAD(H)
T1 sequence (A0A3Q9WWX8 1-367): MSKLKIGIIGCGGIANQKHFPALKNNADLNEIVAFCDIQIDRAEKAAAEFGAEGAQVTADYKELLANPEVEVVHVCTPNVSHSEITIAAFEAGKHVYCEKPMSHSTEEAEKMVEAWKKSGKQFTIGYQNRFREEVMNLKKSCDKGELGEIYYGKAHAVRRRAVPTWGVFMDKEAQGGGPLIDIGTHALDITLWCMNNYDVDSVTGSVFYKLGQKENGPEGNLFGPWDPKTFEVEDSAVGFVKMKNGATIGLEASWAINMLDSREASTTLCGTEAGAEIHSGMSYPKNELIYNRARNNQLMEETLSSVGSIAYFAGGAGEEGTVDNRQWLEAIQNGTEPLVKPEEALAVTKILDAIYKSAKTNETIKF

B1: D3dgpA (human intestinal bacterium PUE) (protein)
chain: T1 sequence (A0A3Q9WWX8 1-367)
notes: full length, 367 residues; His6-tag; pET-duet 1 (EcoRI/SalI), E. coli BL21 (DE3), Ni-NTA; about 45 kD; hexamer in solution; co-purifies with NAD(H)

Assays:
[1] = target: T1, D3dgpA; experiment: HPLC of […]”-oxo-puerarin formation with and without monosaccharide; assay type: biochemical; details: 400 eq puerarin and methyl β-D-3-oxo-glucopyranoside, 800 eq monosaccharide to enzyme; 5 mM HEPES pH 7.5, 36.5°C, 10 min
[2] = target: T1, D3dgpA; experiment: HPLC analysis of nucleotide co-purified with enzyme; assay type: binding; details: bound in purified enzyme as isolated
[3] = target: D3dgpA, Gfo/Idh/MocA family glycoside oxidoreductase (dgpA cloned from Dorea sp. MRG-IFC3) (Dorea sp. MRG-IFC3); experiment: not stated; purified His6-tagged D3dgpA in solution; the method is shown only in Supplementary Figure S5
[4] = substrate: O=c1c(-c2ccc(O)cc2)coc2c([C@@H]3O[C@H](CO)[C@@H](O)[C@H](O)[C@H]3O)c(O)ccc12; experiment: purified protein; assay type: biochemical, human intestinal bacterium PUE; details: co-substrate 760 μM methyl β-D-3-oxo-glucopyranoside, 5 mM HEPES pH 7.5, 5 mM NaCl, 36.5°C

Molecule | relative inhibition [1] | also measured
OC[C@H]1OC(O)[C@H](O)[C@@H](O)[C@@H]1O (stereo partly drawn) [D-glucose] | D-glucose exhibited the most inhibitory effects on the oxidation of puerarin | –
NC(=O)c1ccc[n+]([C@@H]2O[C@H](COP(=O)(O)OP(=O)(O)OC[C@H]3O[C@@H](n4cnc5c(N)ncnc54)[C@H](O)[C@@H]3O)[C@@H](O)[C@H]2O)c1 [NAD^+] | – | HPLC analysis of nucleotide co-purified with enzyme [2]: The purified D3dgpA was found to contain an almost equimolar amount of NAD(H)
O[C@@H]1[C@@H](O)[C@@H]2OC[C@@H](O2)[C@H]1O [levoglucosan] | decreased in the order of D-glucose > methyl ß-glucoside > methyl α-glucoside ≈ levoglucosan | –
CO[C@H]1O[C@H](CO)[C@@H](O)[C@H](O)[C@H]1O [methyl α-glucopyranoside] | decreased in the order of D-glucose > methyl ß-glucoside > methyl α-glucoside ≈ levoglucosan | –
CO[C@@H]1O[C@H](CO)[C@@H](O)[C@H](O)[C@H]1O [methyl β-glucopyranoside] | decreased in the order of D-glucose > methyl ß-glucoside > methyl α-glucoside ≈ levoglucosan | –
D3dgpA, Gfo/Idh/MocA family glycoside oxidoreductase (dgpA cloned from Dorea sp. MRG-IFC3) (enzyme) | – | stoichiometry N [3]: 6
B1 | – | Km [4]: 250 µM; kcat [4]: 32 s⁻¹
